From patent US20230220006A1, “REGENTIDE-034 AND COMPOSITION FOR IMPROVING CONDITION OF SKIN, CONTAINING SAME” (NI[…]., LTD., priority 2020, published 2023) come the findings set out here.

SMILES strings stand for the structures. Where a SMILES comes first, the peptide text is derived from it.

The subject of one data set is HaCaT cells. In words: Cytotoxicity evaluation (CCK8) in epidermal keratinocytes. To be noted: 5 µM or 10 µM, 48 hours, FBS-free medium. Type of data set: cell-based, human. The procedure: (§1) The cytotoxicity of Regentide-034 prepared in Example 1 above was evaluated. Specifically, cytotoxicities were measured in HaCaT cells, which are human epidermal keratinocytes, and CCD-986Sk, which is human fibroblasts. Keratinocytes were dispensed at 3 × 10^3 cells/well and fibroblasts were dispensed at 5 × 10^3 cells/well in a 96-well plate, and then cultured in cell culture conditions for 24 hours in a medium containing 10% FBS. After culturing, 5 µM or 10 µM of Regentide-034 was added to an FBS-free medium, and this was cultured for 48 hours. Thereafter, 10 µl per well of CCK8 reaction solution (Dojindo Molecular Technologies, Kumamoto, Japan) was treated and reacted for 4 hours, and then absorbance was measured at 450 nm. The average absorbance value for each sample group was obtained, and the cell viability was evaluated by comparing it with the absorbance value of cells that had not been treated with Regentide-034 as a control group.

A further data set has as its system CCD-986Sk. Put plainly: Cytotoxicity evaluation (CCK8) in fibroblasts. In kind it is cell-based, human. The note with it: 5 µM or 10 µM, 48 hours, FBS-free medium. The procedure:
as §1

For `C[C@H](N)C(=O)N[C@@H](Cc1ccc(O)cc1)C(=O)NCC(=O)N[C@@H](CS)C(=O)N[C@@H](Cc1ccc(O)cc1)C(=O)N[C@@H](CS)C(=O)NCC(=O)N[C@@H](Cc1c[nH]c2ccccc12)C(=O)NCC(=O)NCC(N)=O` [Regentide-034, AYGCYCGWGG-NH2] (H-AYGCYCGWGG-NH2), the “cytotoxicity (cell viability) to epidermal keratinocytes” value in the data set on HaCaT cells is given as “not toxic”. The “cytotoxicity (cell viability) to fibroblasts” value in the data set on CCD-986Sk is listed as “not toxic”.
